Values after ≈ are worked out from the molar mass of the structure shown.
Legend:
[1] = biological target: Type-1 angiotensin II receptor (Homo sapiens) (UniProt P30556); assay: Inhibition of human AT1 receptor at 10 uM relative to control
[2] = biological target: Insulin receptor (Homo sapiens) (UniProt P06213); assay: Inhibition of human IRK (InsR) at 10 uM relative to control
[3] = biological target: Tyrosine-protein kinase ZAP-70 (Homo sapiens) (UniProt P43403); assay: Inhibition of human ZAP70 kinase at 10 uM relative to control
[4] = organism: Homo sapiens; assay: Inhibition of SKCa channel (unknown origin) at 10 uM relative to control
[5] = biological target: Oxysterols receptor LXR-beta (Homo sapiens) (UniProt P55055); assay: Inhibition of human LXRbeta at 10 uM relative to control
[6] = biological target: Neuronal acetylcholine receptor; alpha4/beta2 (Homo sapiens) (UniProt P17787+P43681); assay: Inhibition of human N neuronal alpha4 beta2 receptor at 10 uM relative to control; format: protein-complex assay
[7] = biological target: Muscarinic acetylcholine receptor M4 (Homo sapiens) (UniProt P08173); assay: Inhibition of human M4 receptor at 10 uM relative to control
[8] = biological target: Platelet-activating factor receptor (Homo sapiens) (UniProt P25105); assay: Inhibition of human PAF receptor at 10 uM relative to control
[9] = biological target: D(1A) dopamine receptor (Homo sapiens) (UniProt P21728); assay: Inhibition of human D1 receptor at 10 uM relative to control
[10] = biological target: GABA-A receptor; alpha-1/beta-2/gamma-2 (Homo sapiens) (UniProt P14867+P47870+P18507); assay: Inhibition of human GABA alpha1/beta2/gamma2 at 10 uM relative to control; format: protein-complex assay
[11] = biological target: Muscarinic acetylcholine receptor M1 (Homo sapiens) (UniProt P11229); assay: Inhibition of human M1 receptor at 10 uM relative to control
[12] = biological target: Histamine H3 receptor (Homo sapiens) (UniProt Q9Y5N1); assay: Inhibition of human H3 receptor at 10 uM relative to control
[13] = biological target: Melanin-concentrating hormone receptor 1 (Homo sapiens) (UniProt Q99705); assay: Inhibition of human MCH1 receptor at 10 uM relative to control
[14] = organism: Homo sapiens; assay: Inhibition of human TR at 10 uM relative to control
[15] = organism: Homo sapiens; assay: Inhibition of Ca2+ channel L, diltiazem site(unknown origin) at 10 uM relative to control
[16] = biological target: Motilin receptor (Homo sapiens, UniProt O43193); assay: Inhibition of human motilin receptor at 10 uM relative to control
[17] = biological target: Nitric oxide synthase, inducible (Homo sapiens) (UniProt P35228); assay: Inhibition of inducible NOS (unknown origin) at 10 uM relative to control
[18] = biological target: 5-hydroxytryptamine receptor 2B (Homo sapiens) (UniProt P41595); assay: Inhibition of human 5-HT2B receptor at 10 uM relative to control
[19] = biological target: cGMP-dependent 3',5'-cyclic phosphodiesterase (Homo sapiens) (UniProt O00408); assay: Inhibition of human PDE2A1 at 10 uM relative to control
[20] = biological target: Vasopressin V2 receptor (Homo sapiens) (UniProt P30518); assay: Inhibition of human V2 receptor at 10 uM relative to control
[21] = biological target: Beta-2 adrenergic receptor (Homo sapiens) (UniProt P07550); assay: Inhibition of human beta 2 receptor at 10 uM relative to control
[22] = organism: Homo sapiens; assay: Inhibition of human CDK2/CycA at 10 uM relative to control
[23] = biological target: 5-hydroxytryptamine receptor 1A (Homo sapiens) (UniProt P08908); assay: Inhibition of human 5-HT1A receptor at 10 uM relative to control
[24] = Inhibition of Ca2+ channel L, diltiazem site (unknown origin); set-up: species or system Homo sapiens
[25] = Aqueous solubility of compound; format: physicochemical; conditions: buffer
[26] = biological target: Angiotensin-converting enzyme (Homo sapiens) (UniProt P12821); assay: Inhibition of human ACE at 10 uM relative to control
[27] = biological target: Melanocortin receptor 4 (Homo sapiens) (UniProt P32245); assay: Inhibition of human MC4 at 10 uM relative to control
[28] = biological target: Adenosine receptor A1 (Homo sapiens) (UniProt P30542); assay: Inhibition of human A1 receptor at 10 uM relative to control
[29] = biological target: Glutamate [NMDA] receptor (Homo sapiens) (UniProt Q05586+Q12879+Q13224+O15399+O60391+Q14957+Q8TCU5); assay: Inhibition of NMDA receptor (unknown origin) at 10 uM relative to control; format: protein-complex assay
[30] = biological target: Somatostatin receptor type 4 (Homo sapiens) (UniProt P31391); assay: Inhibition of human sst4 at 10 uM relative to control
[31] = biological target: Adenosine receptor A2b (Homo sapiens) (UniProt P29275); assay: Inhibition of human A2B receptor at 10 uM relative to control
[32] = biological target: Alpha-2B adrenergic receptor (Homo sapiens, UniProt P18089); assay: Inhibition of human alpha 2B receptor
[33] = biological target: Prostaglandin G/H synthase 1 (Homo sapiens) (UniProt P23219); assay: Inhibition of human COX1 at 10 uM relative to control
[34] = system: HFF; assay: Cytotoxicity against HFF cells assessed as reduction in cell viability at <50 uM by alamar blue assay; format: toxicity, cell-based; conditions: human
[35] = biological target: Substance-K receptor (Homo sapiens) (UniProt P21452); assay: Inhibition of human NK2 receptor at 10 uM relative to control
[36] = biological target: cGMP-inhibited 3',5'-cyclic phosphodiesterase 3B (Homo sapiens) (UniProt Q13370); assay: Inhibition of human PDE3B at 10 uM relative to control
[37] = system: MDA-MB-231; assay: Cytotoxicity against human MDA-MB-231 cells assessed as reduction in cell viability at <50 uM by alamar blue assay; format: toxicity, cell-based; conditions: mda-mb-231, 50 µM
[38] = biological target: Kappa-type opioid receptor (Homo sapiens, UniProt P41145); assay: Inhibition of human kappa opioid receptor at 10 uM relative to control
[39] = biological target: Endothelin-1 receptor (Homo sapiens) (UniProt P25101); assay: Inhibition of human ETA receptor at 10 uM relative to control
[40] = organism: Homo sapiens; assay: Inhibition of PDE6 (unknown origin) at 10 uM relative to control
[41] = biological target: Histamine H4 receptor (Homo sapiens) (UniProt Q9H3N8); assay: Inhibition of human H4 receptor at 10 uM relative to control
[42] = biological target: Tyrosine-protein kinase Fyn (Homo sapiens) (UniProt P06241); assay: Inhibition of human Fyn kinase at 10 uM relative to control
[43] = biological target: Catechol O-methyltransferase (Homo sapiens) (UniProt P21964); assay: Inhibition of COMT (unknown origin) at 10 uM relative to control
[44] = biological target: Bombesin receptor subtype-3 (Homo sapiens, UniProt P32247); assay: Inhibition of human BB3 receptor
[45] = biological target: Prostaglandin E2 receptor EP2 subtype (Homo sapiens) (UniProt P43116); assay: Inhibition of human EP2 receptor at 10 uM relative to control

Sequence of Histamine H4 receptor (Homo sapiens) (Q9H3N8 whole entry): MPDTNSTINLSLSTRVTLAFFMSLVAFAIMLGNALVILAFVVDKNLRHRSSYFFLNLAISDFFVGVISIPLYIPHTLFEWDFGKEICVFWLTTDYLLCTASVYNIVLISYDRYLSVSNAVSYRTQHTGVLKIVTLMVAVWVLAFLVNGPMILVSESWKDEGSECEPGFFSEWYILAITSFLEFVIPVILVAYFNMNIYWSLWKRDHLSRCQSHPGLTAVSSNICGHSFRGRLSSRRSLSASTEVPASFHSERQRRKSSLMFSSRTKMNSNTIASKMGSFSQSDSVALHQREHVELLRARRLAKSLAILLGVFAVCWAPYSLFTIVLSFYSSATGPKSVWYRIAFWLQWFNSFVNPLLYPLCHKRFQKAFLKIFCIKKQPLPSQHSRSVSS
Sequence of Vasopressin V2 receptor (Homo sapiens) (P30518 whole entry): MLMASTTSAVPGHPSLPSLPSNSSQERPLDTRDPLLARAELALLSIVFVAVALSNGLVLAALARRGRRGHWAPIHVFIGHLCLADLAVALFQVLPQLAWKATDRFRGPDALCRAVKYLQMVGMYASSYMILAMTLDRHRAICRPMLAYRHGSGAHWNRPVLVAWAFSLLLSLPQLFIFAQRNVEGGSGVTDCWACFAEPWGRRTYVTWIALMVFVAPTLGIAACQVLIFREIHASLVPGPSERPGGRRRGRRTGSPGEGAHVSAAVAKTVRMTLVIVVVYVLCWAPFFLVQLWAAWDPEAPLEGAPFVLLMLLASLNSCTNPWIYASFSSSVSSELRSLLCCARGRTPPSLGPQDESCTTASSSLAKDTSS
Sequence of Histamine H3 receptor (Homo sapiens) (Q9Y5N1 whole entry): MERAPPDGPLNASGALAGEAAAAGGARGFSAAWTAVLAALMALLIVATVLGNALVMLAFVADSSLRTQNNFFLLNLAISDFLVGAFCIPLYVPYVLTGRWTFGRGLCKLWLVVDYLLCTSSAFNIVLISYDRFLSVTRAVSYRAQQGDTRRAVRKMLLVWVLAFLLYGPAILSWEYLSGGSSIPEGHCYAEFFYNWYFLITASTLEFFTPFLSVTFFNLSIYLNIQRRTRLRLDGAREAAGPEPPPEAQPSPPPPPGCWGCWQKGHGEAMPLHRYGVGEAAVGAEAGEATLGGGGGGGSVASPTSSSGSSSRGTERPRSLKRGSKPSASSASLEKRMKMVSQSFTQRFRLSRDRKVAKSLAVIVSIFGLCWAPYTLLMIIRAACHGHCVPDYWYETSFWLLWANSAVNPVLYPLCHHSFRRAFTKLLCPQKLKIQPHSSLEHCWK
Sequence of Somatostatin receptor type 4 (Homo sapiens) (P31391 whole entry): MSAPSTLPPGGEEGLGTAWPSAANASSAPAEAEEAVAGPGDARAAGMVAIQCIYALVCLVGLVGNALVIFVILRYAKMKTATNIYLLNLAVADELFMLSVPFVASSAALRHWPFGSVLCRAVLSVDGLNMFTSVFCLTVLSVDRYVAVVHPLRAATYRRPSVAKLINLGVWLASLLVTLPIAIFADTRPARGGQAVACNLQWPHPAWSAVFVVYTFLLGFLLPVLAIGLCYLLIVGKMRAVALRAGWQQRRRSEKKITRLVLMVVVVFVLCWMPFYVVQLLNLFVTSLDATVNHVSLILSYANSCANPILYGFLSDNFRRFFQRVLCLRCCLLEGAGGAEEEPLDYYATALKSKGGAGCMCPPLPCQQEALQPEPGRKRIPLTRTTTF
Sequence of Muscarinic acetylcholine receptor M1 (Homo sapiens) (P11229 whole entry): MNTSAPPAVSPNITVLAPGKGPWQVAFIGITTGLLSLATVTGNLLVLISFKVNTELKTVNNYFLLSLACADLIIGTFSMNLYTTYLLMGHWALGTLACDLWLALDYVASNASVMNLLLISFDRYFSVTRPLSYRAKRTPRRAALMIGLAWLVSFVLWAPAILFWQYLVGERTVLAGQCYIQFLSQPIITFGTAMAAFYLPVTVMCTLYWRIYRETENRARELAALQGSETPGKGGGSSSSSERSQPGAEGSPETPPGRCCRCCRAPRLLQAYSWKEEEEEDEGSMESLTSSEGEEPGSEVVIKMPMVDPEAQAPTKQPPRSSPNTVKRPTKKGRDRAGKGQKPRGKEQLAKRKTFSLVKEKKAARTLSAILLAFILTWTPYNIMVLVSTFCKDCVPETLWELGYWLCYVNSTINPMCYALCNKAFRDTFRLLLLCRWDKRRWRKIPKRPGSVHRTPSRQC
Sequence of Oxysterols receptor LXR-beta (Homo sapiens) (P55055 whole entry): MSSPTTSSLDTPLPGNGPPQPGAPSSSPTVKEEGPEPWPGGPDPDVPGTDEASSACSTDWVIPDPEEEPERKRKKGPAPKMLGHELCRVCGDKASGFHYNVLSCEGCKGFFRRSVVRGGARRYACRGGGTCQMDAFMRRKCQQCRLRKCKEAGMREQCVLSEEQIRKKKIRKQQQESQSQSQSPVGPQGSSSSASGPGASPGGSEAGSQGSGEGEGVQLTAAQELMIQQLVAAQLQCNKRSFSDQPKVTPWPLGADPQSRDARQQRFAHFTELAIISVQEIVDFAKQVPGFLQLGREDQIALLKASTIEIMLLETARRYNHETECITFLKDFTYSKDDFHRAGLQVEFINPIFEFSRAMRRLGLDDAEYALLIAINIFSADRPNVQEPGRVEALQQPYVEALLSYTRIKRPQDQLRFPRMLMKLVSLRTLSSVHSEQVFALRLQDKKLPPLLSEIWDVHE
Sequence of Bombesin receptor subtype-3 (P32247 whole entry): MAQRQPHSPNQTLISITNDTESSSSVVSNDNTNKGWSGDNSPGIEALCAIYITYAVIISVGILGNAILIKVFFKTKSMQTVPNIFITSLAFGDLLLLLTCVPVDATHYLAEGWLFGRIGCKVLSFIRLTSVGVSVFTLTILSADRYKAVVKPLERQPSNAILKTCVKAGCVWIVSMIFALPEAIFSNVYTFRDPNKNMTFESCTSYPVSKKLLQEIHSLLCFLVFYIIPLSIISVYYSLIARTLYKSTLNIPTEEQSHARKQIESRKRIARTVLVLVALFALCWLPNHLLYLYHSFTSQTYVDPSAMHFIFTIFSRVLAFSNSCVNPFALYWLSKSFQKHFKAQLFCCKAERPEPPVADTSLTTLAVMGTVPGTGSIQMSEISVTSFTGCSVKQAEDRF
Sequence of Alpha-2B adrenergic receptor (P18089 whole entry): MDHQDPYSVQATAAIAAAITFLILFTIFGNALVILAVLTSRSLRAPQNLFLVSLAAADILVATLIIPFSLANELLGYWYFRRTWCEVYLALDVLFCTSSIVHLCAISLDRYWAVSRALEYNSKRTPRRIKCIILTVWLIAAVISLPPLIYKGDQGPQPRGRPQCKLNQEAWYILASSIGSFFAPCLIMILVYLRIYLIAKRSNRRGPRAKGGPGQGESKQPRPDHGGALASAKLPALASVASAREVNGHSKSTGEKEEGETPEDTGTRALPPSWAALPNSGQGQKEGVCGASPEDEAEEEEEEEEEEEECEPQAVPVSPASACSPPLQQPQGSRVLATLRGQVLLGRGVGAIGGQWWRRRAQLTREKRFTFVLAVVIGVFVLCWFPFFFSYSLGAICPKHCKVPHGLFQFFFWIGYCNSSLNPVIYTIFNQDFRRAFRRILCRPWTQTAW
Sequence of cGMP-dependent 3',5'-cyclic phosphodiesterase (Homo sapiens) (O00408 whole entry): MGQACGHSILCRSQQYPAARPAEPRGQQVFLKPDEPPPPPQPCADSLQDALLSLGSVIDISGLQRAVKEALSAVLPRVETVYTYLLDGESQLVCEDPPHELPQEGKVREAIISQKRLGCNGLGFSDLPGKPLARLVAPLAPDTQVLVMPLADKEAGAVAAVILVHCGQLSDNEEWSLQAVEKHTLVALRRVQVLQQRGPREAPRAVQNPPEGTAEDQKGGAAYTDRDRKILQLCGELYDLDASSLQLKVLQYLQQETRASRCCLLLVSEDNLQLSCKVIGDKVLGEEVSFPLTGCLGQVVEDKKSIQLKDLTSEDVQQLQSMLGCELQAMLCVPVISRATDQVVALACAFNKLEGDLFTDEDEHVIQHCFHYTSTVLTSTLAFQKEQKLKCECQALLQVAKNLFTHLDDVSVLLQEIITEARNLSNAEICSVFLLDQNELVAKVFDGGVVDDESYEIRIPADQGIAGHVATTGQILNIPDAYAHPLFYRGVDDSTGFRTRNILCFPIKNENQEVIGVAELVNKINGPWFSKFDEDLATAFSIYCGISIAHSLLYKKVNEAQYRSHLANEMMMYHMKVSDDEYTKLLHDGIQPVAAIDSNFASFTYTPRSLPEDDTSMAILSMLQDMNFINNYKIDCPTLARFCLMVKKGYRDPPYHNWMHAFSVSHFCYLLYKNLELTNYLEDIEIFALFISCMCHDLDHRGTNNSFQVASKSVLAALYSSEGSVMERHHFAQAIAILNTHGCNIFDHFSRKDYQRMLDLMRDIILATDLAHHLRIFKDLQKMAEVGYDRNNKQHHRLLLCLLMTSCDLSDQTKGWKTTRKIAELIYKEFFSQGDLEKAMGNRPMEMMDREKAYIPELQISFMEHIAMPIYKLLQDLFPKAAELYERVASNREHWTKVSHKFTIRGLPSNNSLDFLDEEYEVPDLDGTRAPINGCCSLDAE
Sequence of Melanin-concentrating hormone receptor 1 (Homo sapiens) (Q99705 whole entry): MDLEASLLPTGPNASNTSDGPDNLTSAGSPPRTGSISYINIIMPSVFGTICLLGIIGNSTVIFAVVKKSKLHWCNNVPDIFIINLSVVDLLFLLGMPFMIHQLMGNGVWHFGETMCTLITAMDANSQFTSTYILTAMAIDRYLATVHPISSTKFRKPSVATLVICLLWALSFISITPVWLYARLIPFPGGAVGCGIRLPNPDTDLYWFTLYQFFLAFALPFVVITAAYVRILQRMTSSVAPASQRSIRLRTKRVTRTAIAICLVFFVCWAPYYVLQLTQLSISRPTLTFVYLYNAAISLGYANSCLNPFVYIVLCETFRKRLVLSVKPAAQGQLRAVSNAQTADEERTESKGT
Sequence of Catechol O-methyltransferase (Homo sapiens) (P21964 whole entry): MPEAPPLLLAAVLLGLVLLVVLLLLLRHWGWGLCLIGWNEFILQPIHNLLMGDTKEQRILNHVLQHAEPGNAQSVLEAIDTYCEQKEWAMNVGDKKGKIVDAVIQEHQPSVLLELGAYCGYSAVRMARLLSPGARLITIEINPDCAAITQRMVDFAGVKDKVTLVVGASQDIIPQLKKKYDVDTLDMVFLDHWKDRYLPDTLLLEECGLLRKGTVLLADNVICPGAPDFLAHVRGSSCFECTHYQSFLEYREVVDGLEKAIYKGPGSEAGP

Q: Which inhibition [1] does the source give for O=C([C@@H](Cc1cccc(C(F)(F)F)c1)NS(=O)(=O)c1cc(F)c2c(c1)CCNC2)N1CCCC1 here?
A: 15%

Q: What about the inhibition [2] of the same molecule?
A: 0%

Q: And the inhibition [3]?
A: 13%

Q: What about the inhibition [4] of the same molecule?
A: 5%

Q: And the inhibition [5]?
A: 5%

Q: And the inhibition [6]?
A: -4%

Q: What about the inhibition [7] of the same molecule?
A: 19%

Q: And the inhibition [8]?
A: 6%

Q: What about the inhibition [9] of the same molecule?
A: 0%

Q: And the inhibition [10]?
A: -10%

Q: And the inhibition [11]?
A: 16%

Q: What about the inhibition [12] of the same molecule?
A: -1%

Q: What about the inhibition [13] of the same molecule?
A: -1%

Q: And the inhibition [14]?
A: 5%

Q: What about the inhibition [15] of the same molecule?
A: 52%

Q: What about the inhibition [16] of the same molecule?
A: 55%

Q: And the inhibition [17]?
A: -7%

Q: And the inhibition [18]?
A: 1%

Q: And the inhibition [19]?
A: -2%

Q: And the inhibition [20]?
A: 11%

Q: And the inhibition [21]?
A: -4%

Q: What about the inhibition [22] of the same molecule?
A: -1%

Q: And the inhibition [23]?
A: 0%

Q: What about the IC50 [24] of the same molecule?
A: 14 µM

Q: And the solubility [25]?
A: 285 µM (≈ 142 µg/mL)

Q: What about the inhibition [26] of the same molecule?
A: -4%

Q: And the inhibition [27]?
A: 15%

Q: And the inhibition [28]?
A: -10%

Q: And the inhibition [29]?
A: -8%

Q: And the inhibition [30]?
A: 27%

Q: What about the inhibition [31] of the same molecule?
A: -3%

Q: What about the IC50 [32] of the same molecule?
A: 1.3 µM

Q: And the inhibition [33]?
A: 4%

Q: What about the Activity [34] of the same molecule?
A: Non-Toxic

Q: And the inhibition [35]?
A: 28%

Q: What about the inhibition [36] of the same molecule?
A: -5%

Q: What about the Activity [37] of the same molecule?
A: Non-Toxic

Q: What about the inhibition [38] of the same molecule?
A: 55%

Q: And the inhibition [39]?
A: 10%

Q: What about the inhibition [40] of the same molecule?
A: 11%

Q: And the inhibition [41]?
A: -2%

Q: And the inhibition [42]?
A: 1%

Q: What about the inhibition [43] of the same molecule?
A: -9%

Q: And the IC50 [44]?
A: 8.1 µM

Q: What about the inhibition [45] of the same molecule?
A: -1%

Reference: ChEMBL document CHEMBL5705898 (Proc Natl Acad Sci U S A, 2014)
